According to patent publication US10980777B2, “Indole derivatives as histone demethylase inhibitors” (Istituto Europeo di Oncologia S.r.l., priority 2017, dated 2021):
Where a name gives a salt, the structure may show the parent alone. Read-outs that look alike come from different tables or passages of the source.

Assays:
[1] = molecular target: T1, human recombinant KDM1A/CoREST protein (Homo sapiens, UniProt O60341); test: Assay of enzyme inhibition of KDM1A (LSD1), TR-FRET; assay type: biochemical
T1 construct: made in house; host or cells: E. coli
Description: 2.1 Assay of Enzyme Inhibition of KDM1A (LSD1)
The KDM1A inhibiting activity was determined using a TR-FRET assay (time resolved fluorescence resonance energy transfer, Lance® Ultra Demethylase technology (Perkin Elmer, Waltham, Mass., USA)), which comprises a Europium chelate donor dye (TRF0404, Perkin Elmer, Waltham, Mass., USA) together with ULight™ (TR0102, Perkin Elmer, Waltham, Mass., USA), a small molecular weight acceptor dye with a red-shifted fluorescent emission, and a biotinylated 21 amino acids histone H3-derived monomethylated peptide (H3K4me) [Lys(Me1)4]-Histone H3 (1-21)-GGK(biotin), (64355, Anaspec, Fremont, Calif., USA) as substrate. The intensity of the light emission is proportional to the level of biotinylated reaction product. The complex of human recombinant KDM1A/CoREST protein was produced in E. coli as separate proteins and co-purified as previously described.(Forneris, F. et al. Trends Biochem, Sci, 2008, 33, 181-189) (Forneris, F. et al. J. Biol. Chem. 2007, 282, 20070-20074).
Demethylase Assay conditions: 0.25 nM KDM1A/CoREST protein and compound in 100% DMSO were added in a final volume of 48 μL assay buffer (Tris HCl 50 mM pH 8.8, NaCl 50 mM, DTT 1 mM, Tween-20 0.01% (by volume)) to each well of a 96 well half area flat bottom white plate (3693 Costar, Sigma-Aldrich, St. Louis, M, USA).
Demethylase reaction was started by the addition of 50 nM histone H3K4 monomethylated. After 20 min at RT, 300 μM tranylcypromine (P8511-1G, Sigma-Aldrich, St. Louis, Mo. 63103) was added to stop the reaction.
Detection step conditions: 10 μL of the assay mixture was transferred from the original plate into a 384 well white plate (6007290 OptiPlate™, Perkin Elmer, Waltham, Mass., USA) and 10 μL of the detection Mix containing 2 nM Eu-antibody and 10 nM U-Light-Streptavidin in 1× Lance Detection Buffer (TRF0404, TR0102, CR97100, Perkin Elmer, Waltham, Mass., USA). The resulting mixture was incubated in the dark for 1 h at RT. Then, TR-FRET signal was read by a fluorimeter (Infinite® F200, Tecan, Männedorf, Switzerland) (Excitation 320 nm, Emission 665 nm and 620 nm, delay time 50 μs, window time 100 μs).
IC50 determination: The inhibitor concentrations ranged from 0.025 to 500 μM (serial 1:3 dilutions). The IC50 was calculated using GraphPad Software.

[2] = system: Human leukemia MV4-11 cells; test: Cell growth, CellTiter-Fluor cell viability assay, MV4-11; assay type: cell-based; details: 48 h incubation, read-out: IC50 against human leukemia MV4-11 cells
Text: (§1) CellTiter-Flor® (Promega) is as a nonlytic, single-reagent-addition fluorescence assay that measures the relative number of living cells in a culture population after experimental manipulation. The CellTiter-Fluor™ Cell Viability Assay measures the conserved and constitutive protease activity within live cells and therefore acts as a marker for cell viability.
(§2) Human leukemia MV4-11 cells, (obtained from the Deutsche Sammlung von Mikroorganismen und Zellkulturen, ACC 102) or NB4 cells, (obtained from the Deutsche Sammlung von Mikroorganismen und Zellkulturen) in exponential growth, were incubated for 48 h with different concentrations of the inhibitors. After 48 h a volume of CellTiter-Fluor® Reagent equal to one fifth of volume of cell culture medium was added. The content was mixed and incubates for at least 90 min at 37° C. degree to obtain a stable signal. The fluorescence was recorded using an excitation wavelength of 360 nm and an emission at 535 nm. The IC50 was calculated using GraphPad Software.

human leukemia NB4 cells = test: Cell growth, CellTiter-Fluor cell viability assay, NB4; assay type: cell-based; details: NB-4, 48 h incubation, read-out: IC50 against human leukemia NB4 cells
Text: as §1, §2

[3] = 0.25 nM KDM1A/CoREST, 50 nM H3K4 monomethylated peptide, 20 min at RT, read-out: IC50, KDM1A (LSD1) enzyme inhibition

SMILES | IC50 [1, 3] [nM] | IC50 [2] [µM] | IC50 (human leukemia NB4 cells) [µM] | IC50 [1] [nM]
Cn1c(C(=O)c2cn(CCOc3ccc(OC[C@@H]4CCNC4)cc3)c3ccccc23)cc2sccc21 (stereo in doubt) [Compound 15, (4-methylthieno[3,2-b]pyrrol-5-yl)-[1-[2-[4-(pyrrolidin-3-ylmethoxy)phenoxy]ethyl]indol-3-yl]methanone hydrochloride] | < 500 | < 10 | < 10 | 
Cn1c(C(=O)c2cn(CCOc3cccc(O[C@@H]4CCCNCC4)c3)c3ccccc23)cc2sccc21 (stereo in doubt) [Compound 20, [1-[2-[3-(azepan-4-yloxy)phenoxy]ethyl]indol-3-yl]-(4-methylthieno[3,2-b]pyrrol-5-yl)methanone hydrochloride] | < 500 |  | < 10 | 
Cn1c(C(=O)c2cn(CCOc3ccc(O[C@H]4CCCNCC4)cc3)c3ccccc23)cc2sccc21 (stereo in doubt) [Compound 21, [1-[2-[4-(azepan-4-yloxy)phenoxy]ethyl]indol-3-yl]-(4-methylthieno[3,2-b]pyrrol-5-yl)methanone hydrochloride] | < 500 |  | < 10 | 
Cn1c(C(=O)c2cn(CCCc3ccc(OC[C@@H]4CCNC4)cc3)c3ccccc23)cc2sccc21 (stereo in doubt) [Compound 22, (4-methylthieno[3,2-b]pyrrol-5-yl)-[1-[3-[4-(pyrrolidin-3-ylmethoxy)phenyl]propyl]indol-3-yl]methanone hydrochloride] | < 500 |  | < 10 | 
Cn1c(C(=O)c2cn(CCCc3ccc(O[C@H]4CCCNCC4)cc3)c3ccccc23)cc2sccc21 (stereo in doubt) [Compound 25, [1-[3-[4-(azepan-4-yloxy)phenyl]propyl]indol-3-yl]-(4-methylthieno[3,2-b]pyrrol-5-yl)methanone hydrochloride] | < 500 |  |  | 
CCn1c(C(=O)c2cn(CCCc3ccc(OC[C@@H]4CCNC4)cc3)c3ccccc23)cc2sccc21 (stereo in doubt) [Compound 28, (4-ethylthieno[3,2-b]pyrrol-5-yl)-[1-[3-[4-(pyrrolidin-3-ylmethoxy)phenyl]propyl]indol-3-yl]methanone hydrochloride] | < 500 |  |  | 
Cn1c(C(=O)c2cn(CCCc3ccc(OC[C@@H]4CCNC4)cc3)c3ccccc23)cc2ccsc21 (stereo in doubt) [Compound 29, (6-methylthieno[2,3-b]pyrrol-5-yl)-[1-[3-[4-(pyrrolidin-3-ylmethoxy)phenyl]propyl]indol-3-yl]methanone] | < 500 |  |  | 
Cn1c(C(=O)c2c[nH]c3ccccc23)cc2sccc21 [Compound 1, 1H-indol-3-yl-(4-methylthieno[3,2-b]pyrrol-5-yl)methanone] | < 50000 |  |  | 
Cc1ccc2[nH]cc(C(=O)c3cc4sccc4n3C)c2c1 [Compound 2, (5-methyl-1H-indol-3-yl)-(4-methylthieno[3,2-b]pyrrol-5-yl)methanone] | < 50000 |  |  | 
CCn1c(C(=O)c2c[nH]c3ccccc23)cc2sccc21 [Compound 5, (4-ethylthieno[3,2-b]pyrrol-5-yl)-(1H-indol-3-yl)methanone] | < 50000 |  |  | 
Cn1c(C(=O)c2c[nH]c3ccccc23)cc2ccsc21 [Compound 6, 1H-indol-3-yl-(6-methylthieno[2,3-b]pyrrol-5-yl)methanone] | < 50000 |  |  | 
COCCn1cc(C(=O)c2cc3sccc3n2C)c2ccccc21 [Compound 8, [1-(2-Methoxyethyl)indol-3-yl]-(4-methylthieno[3,2-b]pyrrol-5-yl)methanone] |  |  |  | < 50000
Cn1c(C(=O)c2cn(CCOc3ccccc3OCC3CCNC3)c3ccccc23)cc2sccc21 (stereo not shown) [Compound 11, (4-Methylthieno[3,2-b]pyrrol-5-yl)-[1-[2-[2-(pyrrolidin-3-ylmethoxy)phenoxy]ethyl]indol-3-yl]methanone hydrochloride] | < 5000 | < 10 | < 10 | 
Cn1c(C(=O)c2cn(CCOc3cccc(OCC4CCNC4)c3)c3ccccc23)cc2sccc21 (stereo not shown) [Compound 12, (4-methylthieno[3,2-b]pyrrol-5-yl)-[1-[2-[3-(pyrrolidin-3-ylmethoxy)phenoxy]ethyl]indol-3-yl]methanone] | < 500 |  |  | 
Cn1c(C(=O)c2cn(CCOc3cccc(OC[C@H]4CCNC4)c3)c3ccccc23)cc2sccc21 [Compound 13, (4-methylthieno[3,2-b]pyrrol-5-yl)-[1-[2-[3-[[(3S)-pyrrolidin-3-yl]methoxy]phenoxy]ethyl]indol-3-yl]methanone hydrochloride] | < 500 | < 10 | < 10 | 
Cn1c(C(=O)c2cn(CCOc3cccc(OC[C@@H]4CCNC4)c3)c3ccccc23)cc2sccc21 [Compound 14, (4-methylthieno[3,2-b]pyrrol-5-yl)-[1-[2-[3-[[(3R)-pyrrolidin-3-yl]methoxy]phenoxy]ethyl]indol-3-yl]methanone hydrochloride] | < 500 | < 10 | < 10 | 
Cn1c(C(=O)c2cn(CCOc3cccc(OC4CCNCC4)c3)c3ccccc23)cc2sccc21 [Compound 16, (4-methylthieno[3,2-b]pyrrol-5-yl)-[1-[2-[3-(4-piperidyloxy)phenoxy]ethyl]indol-3-yl]methanone hydrochloride] | < 500 | < 10 | < 10 | 
Cn1c(C(=O)c2cn(CCOc3ccc(OC4CCNCC4)cc3)c3ccccc23)cc2sccc21 [Compound 17, (4-methylthieno[3,2-b]pyrrol-5-yl)-[1-[2-[4-(4-piperidyloxy)phenoxy]ethyl]indol-3-yl]methanone hydrochloride] | < 500 | < 10 | < 10 | 
Cn1c(C(=O)c2cn(CCOc3cccc(OCC4CCNCC4)c3)c3ccccc23)cc2sccc21 [Compound 18, (4-methylthieno[3,2-b]pyrrol-5-yl)-[1-[2-[3-(4-piperidylmethoxy)phenoxy]ethyl]indol-3-yl]methanone hydrochloride] | < 500 | < 10 | < 10 | 
Cn1c(C(=O)c2cn(CCCc3ccc(OCC4CCNCC4)cc3)c3ccccc23)cc2sccc21 [Compound 23, (4-methylthieno[3,2-b]pyrrol-5-yl)-[1-[3-[4-(4-piperidylmethoxy)phenyl]propyl]indol-3-yl]methanone hydrochloride] | < 500 |  | < 10 | 
Cn1c(C(=O)c2cn(CCCc3ccc(OC4CCNCC4)cc3)c3ccccc23)cc2sccc21 [Compound 24, (4-methylthieno[3,2-b]pyrrol-5-yl)-[1-[3-[4-(4-piperidyloxy)phenyl]propyl]indol-3-yl]methanone hydrochloride] | < 500 |  | < 10 | 
Cn1c(C(=O)c2cn(CCCc3ccc(OCC4CCNCC4)c(OCC4CCNCC4)c3)c3ccccc23)cc2sccc21 [Compound 26, [1-[3-[3,4-bis(4-piperidylmethoxy)phenyl]propyl]indol-3-yl]-(4-methylthieno[3,2-b]pyrrol-5-yl)methanone] | < 500 |  |  | 
CCn1c(C(=O)c2cn(CCCc3ccc(OC4CCNCC4)cc3)c3ccccc23)cc2sccc21 [Compound 27, (4-ethylthieno[3,2-b]pyrrol-5-yl)-[1-[3-[4-(4-piperidyloxy)phenyl]propyl]indol-3-yl]methanone hydrochloride] | < 500 |  |  | 
Cn1c(C(=O)c2cn(CCCc3ccc(OC4CCNCC4)cc3)c3ccccc23)cc2ccsc21 [Compound 30, (6-methylthieno[2,3-b]pyrrol-5-yl)-[1-[3-[4-(4-piperidyloxy)phenyl]propyl]indol-3-yl]methanone] | < 500 |  |  | 
